# Test results taken from US11154063B2, “Method for producing a bacteriostatic and fungistatic additive in masterbatch for application in plastics” (SERVICIOS ADMINISTRATIVOS PEÑOLES, S.A. DE C.V., priority 2013, dated 2021).
# Test system: S. aureus
# Assay: Inhibition in RP 340 polypropylene copolymer after aging in UV chamber
# Format: cell-based
# Details: after 120 h of aging in UV chamber
smiles,measurement,value
Oc1cc(Cl)ccc1Oc1ccc(Cl)cc1Cl [triclosan],After 120 h of aging Inhibition %.,starts decreasing its antimicrobial effectiveness
